Each block holds one compound with its values, some of them ahead of it.
Assays:
[1] = Solubility of cocrystals and their constituents in organic solvents (shake-flask, HPLC); conditions: for solubility at 48 h: organic solvent or mixture, thermodynamic from solid; for Cp∙10^2, solubility of pure component / Ccc,3AcAmBA∙10^2, coformer concentration in equilibrium with cocrystal / Ccc,CBZ∙10^2, CBZ concentration in equilibrium with cocrystal: value is C∙10^2
Protocol: For the [CBZ + 3AcAmBA] (1:1) cocrystal, methanol was used. For [CBZ + 4AcAmBA] (1:1), all the experiments were performed in acetonitrile. An excess of the solid was placed in an Eppendorf tube, and 2 mL of solvent was added. The resulting suspension was shaken in a ThermoMixer C (Eppendorf, Hamburg, Germany) at 800 rpm for 48 h at the specified temperature. Subsequently, the saturated solution was separated using a 0.22 μm PTEF filter, diluted, and analyzed using HPLC. The solid phases after the experiment were collected and characterized by PXRD. Each experiment was repeated three times.
The HPLC was performed on an LC-20 AD Shimadzu Prominence model (Shimadzu, Kyoto, Japan) equipped with a PDA detector and a Luna C-18 column (150 mm × 4.6 mm i.d., 5 μm particle size, and 100 Å pore size). The column temperature was set to 40 °C. To achieve the proper separation of the cocrystal components, different ratios of the mobile phase, consisting of acetonitrile and a 0.1% aqueous solution of trifluoroacetic acid (35:65 v/v), were used. The flow rate was 1.0 mL·min^−1, and the injection volume was 20 μL. The UV detection of carbamazepine, 2-acetamidobenzoic acid, 3-acetamidobenzoic acid, and 4-acetamidobenzoic acid was carried out at the wavelengths of 285 nm, 249 nm, 220 nm, and 266 nm, respectively.

[2] = design: method as in doi:10.1016/j.molliq.2021.118320; conditions: pH 2.0, 310.2 K; value belongs to the coformer of the cocrystal named in the row; ref [103]; cited from earlier work
[3] = Cocrystal formation thermodynamics from solubility data (Kf, ΔformG, ΔformH, ΔformS); type: physicochemical; conditions: for ΔformH: van't Hoff, 293.15-313.15 K
Description: It is known that the relative stability of a cocrystal with respect to a physical mixture of the parent constituents at a given temperature can be quantitatively expressed in terms of the free-energy change, ΔformG, of the cocrystallization reaction. Analyzing the temperature dependence of the Gibbs formation energy can provide further information on the enthalpy and entropy contributions to the driving force of the process as well as help to estimate the thermodynamic transition temperature, which determines the stability domains of a cocrystal and its individual constituents. The experimental assessment of ΔformG is based on solubility data for the starting molecules and the corresponding cocrystal in the same solvent at a predetermined temperature using the equation below:(3) ΔformG=−RTlnap,Ax×ap,By/acc,Ax×acc,By=−RTlnap,Ax×ap,By/Ksp=−RTlnKf, where ap,A and ap,B represent the activities of pure A and B compounds in a saturated solution; acc,A and acc,B are the activities of the cocrystal components in a solution, in equilibrium with pure cocrystal; Ksp is the solubility product of a cocrystal; T is the temperature; x and y are the stoichiometric coefficients; and Kf is an equilibrium constant at the experimental temperature.
Using the van’t Hoff expression, the enthalpy of the cocrystallization process, ΔformH, may be estimated by evaluating the Kf values at various temperatures (assuming that ΔformH is a constant within the selected temperature range):(4) dlnKf/d(1/T)=−ΔformH/R
The entropy of cocrystal formation, ΔformS, can be estimated from (5) ΔformS=ΔformH−ΔformG/T
Even though the activities in Equation (3) are usually approximated by the corresponding molar concentration while neglecting the activity coefficients, a more valid approximation implies that the activity coefficients for the two solute species are constant along the cocrystal solubility line and equal to the activity coefficients of the pure components in the saturated solutions in the same solvent and temperature. […] Table S5 contains the solubility values of CBZ, coformers, and the CBZ cocrystals with emodin, paeonol, nicotinamide, and glutaric acid in various organic solvents.

[4] = type: physicochemical
Protocol: The saturation shake-flask method was used to measure the aqueous solubility of the CBZ cocrystals in a pH 2.0 buffer solution at the eutectic point, where drug and cocrystal are in equilibrium with the solution. The eutectic point between the cocrystal and the drug was reached by suspending 80 mg of the cocrystal and 30 mg of CBZ in 2 mL of the buffer solution. The obtained suspension was stirred continuously for 72 h at 37.0 ± 0.1 °C. After equilibration, the final pH of the solution was measured. The suspension was diluted with the mobile phase after being filtered through a […] PTEF filter. Concentrations of compounds were analyzed by HPLC. The solid phases after the experiment were characterized by PXRD.
The column temperature was set to 40 °C.

[5] = Preliminary solution stability (congruent/incongruent dissolution) in organic solvents, PXRD of residual phases; type: physicochemical
Description: The most convenient way to determine the solubility product of a cocrystal is to ensure that the solution and the cocrystal are at thermodynamic equilibrium, i.e., that the cocrystal is congruently soluble in the chosen solvent. In this work, acetonitrile was primarily utilized as a medium to carry out solubility experiments. […] (1:1) and [CBZ + 3AcAmBA] […] In the case of [CBZ + 3AcAmBA] (1:1), incongruent solubility of the cocrystal was expected given the high solubility ratio of the components in acetonitrile (Table S6). This is likely to result in an asymmetric ternary phase diagram with a narrow stability region for the [CBZ + 3AcAmBA] (1:1) cocrystal. […] It is reasonable to assume that the poor solution stability of the [CBZ + 2AcAmBA] (1:1) cocrystal is not due to the large solubility difference between CBZ and 2AcAmBA but rather because of the low intrinsic thermodynamic stability of the binary solid form caused by the lack of energy gain associated with cocrystal formation, which leads to a higher solubility in all solvents considered. […] (1:1) cocrystal compared to the parent pure components (~40 °C, Figure S2), implicitly corroborate this supposition. Since no suitable solvent for solubility studies of [CBZ + 2AcAmBA] (1:1) could be found, this system was not further explored. The [CBZ + 3AcAmBA]

[6] = 298.2K, listed as [CBZ+3AcAmBA] (1:1)

Structure (SMILES): CC(=O)Nc1ccccc1C(=O)O [Cocrystal 2AcAmBA, 2-acetamidobenzoic acid]
- solubility ratio Cp,CBZ/Cp,coformer ([1]; Acetonitrile, Table S6): 5.7
- solubility at 48 h ([1]; acetonitrile, 20 °C): 25 ± 0.8 mM
- S0(CF), intrinsic solubility of coformer [2]: 11.5 mM

- solubility at 48 h ([1]; acetonitrile, 20 °C): 4.3 ± 1 mM
- solubility at 48 h ([1]; methanol, 20 °C): 75 ± 0.5 mM
- solubility at 48 h ([1]; methanol, 25 °C): 87 ± 0.5 mM
- solubility at 48 h ([1]; methanol, 30 °C): 97 ± 0.5 mM
- solubility at 48 h ([1]; methanol, 35 °C): 109 ± 0.8 mM
- solubility at 48 h ([1]; methanol, 40 °C): 119.5 ± 0.6 mM
- Cp∙10^2, solubility of pure component ([1]; methanol, 293.15 K): 7.50±0.05 mol/l
Structure (SMILES): CC(=O)Nc1cccc(C(=O)O)c1 [Cocrystal 3AcAmBA, 3-acetamidobenzoic acid]
- S0(CF), intrinsic solubility of coformer [2]: 4.1 mM

- solubility ratio Cp,CBZ/Cp,coformer ([1]; 48 h): 14.1
- solubility at 48 h ([1]; acetonitrile, 20 °C): 10.1 ± 0.1 mM
- solubility at 48 h ([1]; acetonitrile, 25 °C): 11.45 ± 0.05 mM
- solubility at 48 h ([1]; acetonitrile, 30 °C): 12.8 ± 0.07 mM
- solubility at 48 h ([1]; acetonitrile, 35 °C): 14.73 ± 0.07 mM
- solubility at 48 h ([1]; acetonitrile, 40 °C): 16.6 ± 0.3 mM
- Cp∙10^2, solubility of pure component ([1]; acetonitrile, 293.15 K): 1.010±0.010 mol/l
Structure (SMILES): CC(=O)Nc1ccc(C(=O)O)cc1 [Cocrystal 4AcAmBA, 4-acetamidobenzoic acid]
- S0(CF), intrinsic solubility of coformer [2]: 4.6 mM

Structure (SMILES): CC(=O)Nc1cccc(C(=O)O)c1.NC(=O)N1c2ccccc2C=Cc2ccccc21 [[CBZ + 3AcAmBA] (1:1)]
- Ccc,3AcAmBA∙10^2, coformer concentration in equilibrium with cocrystal ([1]; methanol, 293.15 K): 7.0±0.1 mol/l
- Ccc,CBZ∙10^2, CBZ concentration in equilibrium with cocrystal ([1]; methanol, 293.15 K): 7.00±0.06 mol/l
- Ccc,3AcAmBA∙10^2, coformer concentration in equilibrium with cocrystal ([1]; methanol, 298.15 K): 8.1±0.1 mol/l
- Ccc,CBZ∙10^2, CBZ concentration in equilibrium with cocrystal ([1]; methanol, 298.15 K): 8.20±0.10 mol/l
- Ccc,3AcAmBA∙10^2, coformer concentration in equilibrium with cocrystal ([1]; methanol, 303.15 K): 9.5±0.1 mol/l
- Ccc,CBZ∙10^2, CBZ concentration in equilibrium with cocrystal ([1]; methanol, 303.15 K): 9.50±0.08 mol/l
- Ccc,3AcAmBA∙10^2, coformer concentration in equilibrium with cocrystal ([1]; methanol, 308.15 K): 11.1±0.06 mol/l
- Ccc,CBZ∙10^2, CBZ concentration in equilibrium with cocrystal ([1]; methanol, 308.15 K): 11.00±0.08 mol/l
- Ccc,3AcAmBA∙10^2, coformer concentration in equilibrium with cocrystal ([1]; methanol, 313.15 K): 12.5±0.07 mol/l
- Ccc,CBZ∙10^2, CBZ concentration in equilibrium with cocrystal ([1]; methanol, 313.15 K): 12.10±0.08 mol/l
- T·ΔformS ([3]; 298.2K): -3.8 ± 0.5 kJ/mol
- lnKf ([3]; 298.2K): 1.17 ± 0.02
- ΔformG ([3]; 298.2K): -2.91 ± 0.05 kJ/mol
- T·ΔformS [3, 6]: -3.8 ± 0.5 kJ/mol
- ΔformG [3, 6]: -2.91 ± 0.05 kJ/mol
- ΔformH ([3]; 298.2K): -6.7 ± 0.5 kJ/mol
- ΔformH [3, 6]: -6.7 ± 0.5 kJ/mol
- lnKf ([3]; methanol, 293.15 K): 1.20±0.02
- ∆formG ([3]; methanol, 293.15 K): -2.93 ± 0.05 kJ/mol
- lnKf ([3]; methanol, 298.15 K): 1.17±0.02
- ∆formG ([3]; methanol, 298.15 K): -2.91 ± 0.05 kJ/mol
- lnKf ([3]; methanol, 303.15 K): 1.12±0.02
- ∆formG ([3]; methanol, 303.15 K): -2.83 ± 0.05 kJ/mol
- lnKf ([3]; methanol, 308.15 K): 1.06±0.015
- ∆formG ([3]; methanol, 308.15 K): -2.72 ± 0.04 kJ/mol
- lnKf ([3]; methanol, 313.15 K): 1.04±0.02
- ∆formG ([3]; methanol, 313.15 K): -2.69 ± 0.03 kJ/mol
- Scc, solubility of the cocrystal ([4]; pH 2): (1.30 ± 0.03)·10^−3 Mol·L^−1
- [CF]eu, eutectic concentration of coformer ([4]; pH 2.0, 310.2 K, eutectic point): (1.75 ± 0.08)·10^−3 Mol·L^−1
- [CBZ]eu, eutectic concentration of CBZ ([4]; pH 2.0, 310.2 K, eutectic point (drug and cocrystal in equilibrium with solution)): (9.8 ± 0.2)·10^−4 Mol·L^−1
- Keu, eutectic constant ([4]; pH 2.0, 310.2 K, Keu = [CF]eu/[CBZ]eu): 1.8 ± 0.1
- dissolution behaviour / solution stability ([5]; acetonitrile): dissolved incongruently
- dissolution behaviour / solution stability ([5]; methanol): dissolve congruently
